PubChem BioAssay AID330 (DTP/NCI, 2004)
Where “and” joins values, the source holds several entries; their conditions need not be identical. Equal values may be shown once. Inconclusive results and toxic doses are left out. Rule for the calls: active = survival T/C of 150% or more; inactive = T/C below 125% in these data.

System: P388 leukemia ip, CD2F1 mice, survival T/C
Assay: NCI In Vivo Anticancer Drug Screen. Data for tumor model P388 Leukemia (intraperitoneal) in CD2F1 (CDF1) mice
Settings: endpoint: median survival time, higher = longer survival
Method in brief: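 Mice carrying the transplanted tumor received test compound or vehicle. Survival was recorded in each group, and the value is the treated-group measurement divided by that of the vehicle-treated control group.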

[1] = dose: 50.0 mg/kg/injection, schedule: Q01DX005 (ip), vehicle: saline with Tween-80
[2] = dose: 100.0 mg/kg/injection, schedule: Q01DX005 (ip), vehicle: saline with Tween-80
[3] = dose: 200.0 mg/kg/injection, schedule: Q01DX005 (ip), vehicle: saline with Tween-80
[4] = dose: 50.0 mg/kg/injection, schedule: Q01DX009 (ip), vehicle: saline with Tween-80
[5] = dose: 100.0 mg/kg/injection, schedule: Q01DX009 (ip), vehicle: saline with Tween-80
[6] = dose: 200.0 mg/kg/injection, schedule: Q01DX009 (ip), vehicle: saline with Tween-80
[7] = dose: 100.0 mg/kg/injection, schedule: Q01DX001 (ip), vehicle: Klucel (hydroxypropylcellulose) (HPC)
[8] = dose: 50.0 mg/kg/injection, schedule: Q01DX005 (ip), vehicle: Klucel (hydroxypropylcellulose) (HPC)
[9] = dose: 100.0 mg/kg/injection, schedule: Q01DX005 (ip), vehicle: Klucel (hydroxypropylcellulose) (HPC)
[10] = dose: 200.0 mg/kg/injection, schedule: Q01DX005 (ip), vehicle: Klucel (hydroxypropylcellulose) (HPC)
[11] = dose: 25.0 mg/kg/injection, schedule: Q01DX009 (ip), vehicle: saline
[12] = dose: 50.0 mg/kg/injection, schedule: Q01DX009 (ip), vehicle: saline
[13] = dose: 100.0 mg/kg/injection, schedule: Q01DX009 (ip), vehicle: saline
[14] = dose: 200.0 mg/kg/injection, schedule: Q01DX009 (ip), vehicle: saline
[15] = dose: 50.0 mg/kg/injection, schedule: Q01DX009 (ip), vehicle: Klucel (hydroxypropylcellulose) (HPC)
[16] = dose: 100.0 mg/kg/injection, schedule: Q01DX009 (ip), vehicle: Klucel (hydroxypropylcellulose) (HPC)
[17] = dose: 200.0 mg/kg/injection, schedule: Q01DX009 (ip), vehicle: Klucel (hydroxypropylcellulose) (HPC)
[18] = dose: 400.0 mg/kg/injection, schedule: Q01DX009 (ip), vehicle: Klucel (hydroxypropylcellulose) (HPC)

Measured: T/C

CC1CCC(C(C)C2C(O)CC3C4CCC5CC(N)CCC5(C)C4CCC32C)=NC1 (stereo not given) (tested in a mixture with another compound)
inactive: dose: 6.25 mg/kg/injection, schedule: Q01DX009 (ip), vehicle: Klucel (hydroxypropylcellulose) (HPC) 100 % of control | dose: 12.5 mg/kg/injection, schedule: Q01DX009 (ip), vehicle: Klucel (hydroxypropylcellulose) (HPC) 94 % of control | dose: 25.0 mg/kg/injection, schedule: Q01DX009 (ip), vehicle: Klucel (hydroxypropylcellulose) (HPC) 105 % of control

Cc1ccc([N+](=O)[O-])cc1O
inactive: dose: 25.0 mg/kg/injection, schedule: Q01DX009 (ip), vehicle: other 95 % of control | dose: 50.0 mg/kg/injection, schedule: Q01DX009 (ip), vehicle: other 100 % of control | dose: 100.0 mg/kg/injection, schedule: Q01DX009 (ip), vehicle: other 110 % of control

c1ccc2c(c1)OCCN1CCNC21 (stereo not given)
inactive: dose: 100.0 mg/kg/injection, schedule: Q04DX003 (ip), vehicle: saline 100 % of control | dose: 200.0 mg/kg/injection, schedule: Q04DX003 (ip), vehicle: saline 102 % of control | dose: 400.0 mg/kg/injection, schedule: Q04DX003 (ip), vehicle: saline 101 % of control

O=C(Nc1ccc(Cl)c(Cl)c1Cl)/C(Cl)=C1/Sc2ccccc2NC1=O
inactive: [1] 108 % of control | [2] 101 % of control | [3] 101 % of control

CCOC=C1C(=O)N(C)C(=O)N(C)C1=O
inactive: [4] 106 % of control | [5] 106 % of control | [6] 108 % of control

O=C(c1ccccc1)C(Cl)C(Cl)c1ccccc1 (stereo not given)
inactive: dose: 25.0 mg/kg/injection, schedule: Q01DX005 (ip), vehicle: saline with Tween-80 102 % of control | [1] 105 % of control | [2] 101 % of control | [3] 100 % of control

CCNC(=O)OCc1c(Cl)nc2sccn12
inactive: [7] 106 % of control | dose: 200.0 mg/kg/injection, schedule: Q01DX001 (ip), vehicle: Klucel (hydroxypropylcellulose) (HPC) 107 % of control | dose: 400.0 mg/kg/injection, schedule: Q01DX001 (ip), vehicle: Klucel (hydroxypropylcellulose) (HPC) 100 % of control

NC(=O)N/N=C1\CCC2CCCCC2C1 (stereo not given)
inactive: dose: 25.0 mg/kg/injection, schedule: Q01DX001 (ip), vehicle: Klucel (hydroxypropylcellulose) (HPC) 107 % of control | dose: 50.0 mg/kg/injection, schedule: Q01DX001 (ip), vehicle: Klucel (hydroxypropylcellulose) (HPC) 101 % of control | [7] 100 % of control

COc1c2c(cc3c1C(O)=CC(=O)C3=O)OCO2
inactive: [8] 104 % of control | [9] 100 % of control | [10] 107 % of control

COc1ccc2c(-c3ccc(O)cc3)c(-c3ccccc3)c(=O)oc2c1
inactive: dose: 60.0 mg/kg/injection, schedule: Q01DX005 (ip), vehicle: saline with Tween-80 86 % of control | dose: 120.0 mg/kg/injection, schedule: Q01DX005 (ip), vehicle: saline with Tween-80 97 % of control | dose: 240.0 mg/kg/injection, schedule: Q01DX005 (ip), vehicle: saline with Tween-80 89 % of control

CCCCCCCCCCCC[N+]1([O-])CCOCC1
inactive: dose: 0.75 mg/kg/injection, schedule: Q01DX009 (ip), vehicle: saline with Tween-80 93 % of control | dose: 1.5 mg/kg/injection, schedule: Q01DX009 (ip), vehicle: saline with Tween-80 91 % of control | dose: 3.0 mg/kg/injection, schedule: Q01DX009 (ip), vehicle: saline with Tween-80 93 % of control | dose: 12.5 mg/kg/injection, schedule: Q01DX009 (ip), vehicle: saline 91 % of control | [11] 101 % of control and 94 % of control | [12] 99 % of control and 97 % of control

c1ccc(-c2cc3cc4ccccc4cn3c2)cc1
inactive: [4] 105 % of control | [5] 108 % of control and 112 % of control and 92 % of control | [6] 117 % of control and 96 % of control | dose: 400.0 mg/kg/injection, schedule: Q01DX009 (ip), vehicle: saline with Tween-80 108 % of control and 120 % of control | dose: 600.0 mg/kg/injection, schedule: Q01DX009 (ip), vehicle: saline with Tween-80 117 % of control

CC1=CC[C@@H]2[C@@H](CC[C@@]2(C)O)C(C)(C)[C@H]1CC[C@@H]1[C@@]2(C)CCC(=O)C(C)(C)O[C@@H]2CC[C@]1(C)O
inactive: dose: 7.5 mg/kg/injection, schedule: Q01DX005 (ip), vehicle: saline + Tween-80 + alcohol 92 % of control | dose: 15.0 mg/kg/injection, schedule: Q01DX005 (ip), vehicle: saline + Tween-80 + alcohol 98 % of control | dose: 30.0 mg/kg/injection, schedule: Q01DX005 (ip), vehicle: saline + Tween-80 + alcohol 97 % of control | dose: 60.0 mg/kg/injection, schedule: Q01DX005 (ip), vehicle: saline + Tween-80 + alcohol 103 % of control

CC(Br)C(=O)Nc1ncc([N+](=O)[O-])s1 (stereo not given)
inactive: [13] 95 % of control | [14] 100 % of control

N=Nc1c(O)[nH]c2ccccc12
inactive: [15] 89 % of control | [16] 89 % of control | [17] 95 % of control | [18] 100 % of control

CC(C)(C)OC(=O)NC(Cc1ccc(OCc2ccccc2)cc1)C(=O)ON1C(=O)CCC1=O (stereo not given)
inactive: [8] 93 % of control | [9] 88 % of control | [10] 100 % of control

COc1ccc(C2[C@@H]3CCc4ccccc4C3=NN2C(C)=O)cc1 (stereo not given in full)
inactive: [1] 93 % of control | [2] 91 % of control | [3] 87 % of control

CNC(C)C(O)c1ccccc1 (stereo not given)
inactive: dose: 50.0 mg/kg/injection, schedule: Q04DX003 (ip), vehicle: saline with Tween-80 95 % of control | dose: 100.0 mg/kg/injection, schedule: Q04DX003 (ip), vehicle: saline with Tween-80 95 % of control | dose: 200.0 mg/kg/injection, schedule: Q04DX003 (ip), vehicle: saline with Tween-80 100 % of control

C/C1=C\C[C@@H](O)/C(C)=C/[C@H]2OC(=O)[C@H](C)[C@@H]2CC1
inactive: dose: 8.75 mg/kg/injection, schedule: Q01DX005 (ip), vehicle: Klucel (hydroxypropylcellulose) (HPC) 94 % of control | dose: 17.5 mg/kg/injection, schedule: Q01DX005 (ip), vehicle: Klucel (hydroxypropylcellulose) (HPC) 102 % of control | dose: 35.0 mg/kg/injection, schedule: Q01DX005 (ip), vehicle: Klucel (hydroxypropylcellulose) (HPC) 100 % of control | dose: 70.0 mg/kg/injection, schedule: Q01DX005 (ip), vehicle: Klucel (hydroxypropylcellulose) (HPC) 86 % of control

COc1cc2c(cc1O)CCN[C@H]2C
inactive: dose: 50.0 mg/kg/injection, schedule: Q01DX005 (ip), vehicle: saline 100 % of control | dose: 100.0 mg/kg/injection, schedule: Q01DX005 (ip), vehicle: saline 100 % of control | dose: 200.0 mg/kg/injection, schedule: Q01DX005 (ip), vehicle: saline 108 % of control

COC12CC(=O)C(C(C)=O)=C(O)C1(C)c1c(O)c(C)c(O)c(C(C)=O)c1O2 (stereo not given)
inactive: dose: 6.25 mg/kg/injection, schedule: Q01DX009 (ip), vehicle: gum acacia 105 % of control and 108 % of control | dose: 12.5 mg/kg/injection, schedule: Q01DX009 (ip), vehicle: gum acacia 109 % of control and 111 % of control | dose: 25.0 mg/kg/injection, schedule: Q01DX009 (ip), vehicle: gum acacia 111 % of control and 115 % of control | dose: 50.0 mg/kg/injection, schedule: Q01DX009 (ip), vehicle: gum acacia 107 % of control and 113 % of control

O=C(O)C(CCc1ccccc1)NCc1ccccc1 (stereo not given)
inactive: [11] 102 % of control | [12] 88 % of control | [13] 88 % of control and 94 % of control | [14] 95 % of control | dose: 400.0 mg/kg/injection, schedule: Q01DX009 (ip), vehicle: saline 89 % of control

CC(=O)/C(C(=N)c1nc(C)c(C(C)=O)c(C(N)=O)n1)=C(\C)O
inactive: [8] 103 % of control | [9] 100 % of control

CCCCCCCCCC[N+]1(CC)CCCC1
inactive: dose: 3.12 mg/kg/injection, schedule: Q01DX009 (ip), vehicle: saline 104 % of control | dose: 6.25 mg/kg/injection, schedule: Q01DX009 (ip), vehicle: saline 100 % of control

CCCC(NC(=O)C(C)N)C(=O)O (stereo not given)
inactive: [15] 107 % of control | [16] 95 % of control | [17] 102 % of control | [18] 102 % of control
